Reference: patent US20130252890A1, “6,7-DIHYDRO-5H-BENZO[7]ANNULENE DERIVATIVES, PROCESS FOR PREPARATION THEREOF, PHARMACEUTICAL PREPARATIONS COMPRISING THEM, AND THE USE THEREOF FOR PRODUCTION OF MEDICAMENTS” (BAYER INTELLECTUAL PROPERTY GMBH, priority 2010, published 2013)

target: T1, oestrogen receptor (ER) (Homo sapiens, UniProt P03372); assay: Anti-oestrogenic action in MVLN cells (inhibition of estradiol-induced luciferase); format: cell-based; settings: inhibition of estradiol-induced luciferase signal, value of Ex. 44 is a mean value, read-out: Antioestrogenic action in vitro: MVLN transactivation antagonism IC50
T1 construct: These MVLN cells express, along with the functional oestrogen receptor (ER), a reporter construct; endogenous in cells; host or cells: MVLN cells (MCF7 derivative carrying a luciferase reporter construct)
T1 sequence (P03372 1-595): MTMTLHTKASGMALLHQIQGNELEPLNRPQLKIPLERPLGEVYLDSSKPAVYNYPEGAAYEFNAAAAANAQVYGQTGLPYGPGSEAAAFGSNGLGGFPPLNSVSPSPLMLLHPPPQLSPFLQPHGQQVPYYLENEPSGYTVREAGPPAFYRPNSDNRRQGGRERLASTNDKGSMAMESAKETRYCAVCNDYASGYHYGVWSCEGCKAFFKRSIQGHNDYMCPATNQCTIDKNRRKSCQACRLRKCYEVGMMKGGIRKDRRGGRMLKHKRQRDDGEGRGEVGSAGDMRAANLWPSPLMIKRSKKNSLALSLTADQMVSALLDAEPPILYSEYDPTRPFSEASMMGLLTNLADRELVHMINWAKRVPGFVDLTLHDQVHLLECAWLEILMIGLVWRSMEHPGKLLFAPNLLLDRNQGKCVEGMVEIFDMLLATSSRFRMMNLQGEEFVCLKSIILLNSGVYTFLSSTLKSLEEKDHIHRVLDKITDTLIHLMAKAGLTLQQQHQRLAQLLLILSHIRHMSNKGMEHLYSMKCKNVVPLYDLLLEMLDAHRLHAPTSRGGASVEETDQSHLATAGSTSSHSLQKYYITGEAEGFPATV
Outline: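 Inhibition of estradiol-driven luciferase expression was measured with compounds co-applied alongside oestrogen. Reporter system: MCF7-derived MVLN cells expressing endogenous functional ER and an ER-responsive luciferase construct.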

With `O=S(=O)(CCCN(CCO)CCCCCCC1=C(c2ccc(F)cc2)CCCc2cc(O)ccc21)CCCC(F)(F)F` [Example 97, 8-(4-Fluorophenyl)-9-{6-[(2-hydroxyethyl){3-[(4,4,4-trifluorobutyl)sulphonyl]propyl}amino]hexyl}-6,7-dihydro-5H-benzo[7]annulen-3-ol] as the molecule, how does the IC50 read?
Its IC50 is 7 nM.

With `CN(CCCCCC1=C(c2ccc(F)cc2)CCCc2cc(O)ccc21)CCCCS(=O)(=O)CCC(F)(F)F` [Example 52, 8-(4-Fluorophenyl)-9-[5-(methyl{4-[(3,3,3-trifluoropropyl)sulphonyl]butyl}amino)pentyl]-6,7-dihydro-5H-benzo[7]annulen-3-ol] as the molecule, how does the IC50 read?
Its IC50 is 521 nM.

With `CN(CCCCCCC1=C(c2cc(F)cc(F)c2)CCCc2cc(O)ccc21)CCCS(=O)(=O)CCCC(F)(F)C(F)(F)F` [Example 1, 8-(3,5-Difluorophenyl)-9-[6-(methyl{3-[(4,4,5,5,5-pentafluoropentyl)sulphonyl]propyl}amino)hexyl]-6,7-dihydro-5H-benzo[7]annulen-3-ol] as the molecule, how does the IC50 read?
The IC50 was 48 nM.

With `O=S(=O)(CCCCC(F)(F)F)CCCNCCCCCCC1=C(c2ccc(F)cc2)CCCc2cc(O)ccc21` [Example 112, 8-(4-Fluorophenyl)-9-[6-({3-[(5,5,5-trifluoropentyl)sulphonyl]propyl}amino)hexyl]-6,7-dihydro-5H-benzo[7]annulen-3-ol] as the molecule, how does the IC50 read?
Its IC50 is 7 nM.

`CN(CCCCCCC1=C(c2ccc(F)cc2)CCCc2cc(O)ccc21)CCCS(=O)(=O)CCCCC(F)(F)C(F)(F)F` [Example 79, 8-(4-Fluorophenyl)-9-[6-(methyl{3-[(5,5,6,6,6-pentafluorohexyl)sulphonyl]propyl}amino)hexyl]-6,7-dihydro-5H-benzo[7]annulen-3-ol] was tested. Which IC50 did it give?
The IC50 was 17 nM.

`CN(CCCCCCC1=C(c2cc(F)cc(F)c2)CCCc2cc(O)ccc21)CCCCCS(=O)(=O)CCC(F)(F)F` [Example 68, 8-(3,5-Difluorophenyl)-9-[6-(methyl{5-[(3,3,3-trifluoropropyl)sulphonyl]pentyl}amino)hexyl]-6,7-dihydro-5H-benzo[7]annulen-3-ol] was tested. Which IC50 did it give?
Its IC50 is 106 nM.

Which IC50 does the source give for `CN(CCCCCCC1=C(c2ccc(F)cc2F)CCCc2cc(O)ccc21)CCCCS(=O)(=O)CCCC(F)(F)C(F)(F)F` [Example 147, 8-(2,4-Difluorophenyl)-9-[6-(methyl{4-[(4,4,5,5,5-pentafluoropentyl)sulphonyl]butyl}amino)hexyl]-6,7-dihydro-5H-benzo[7]annulen-3-ol] here?
The IC50 was 32 nM.

`C[C@@H](O)CN(CCCCCCC1=C(c2ccc(F)cc2)CCCc2cc(O)ccc21)CCCCS(=O)(=O)CCCC(F)(F)F` [Example 98] was tested. Which IC50 did it give?
Its IC50 is 6 nM.

How did the IC50 turn out when `O=S(=O)(CCCN(CCCO)CCCCCCC1=C(c2ccc(F)cc2)CCCc2cc(O)ccc21)CCC(F)(F)F` [Example 57, 8-(4-Fluorophenyl)-9-{6-[(3-hydroxypropyl){3-[(3,3,3-trifluoropropyl)sulphonyl]propyl}amino]hexyl}-6,7-dihydro-5H-benzo[7]annulen-3-ol] was run?
Its IC50 is 111 nM.

Which IC50 does the source give for `CN(CCCCCCC1=C(c2ccc(F)cc2)CCCc2cc(O)ccc21)CCCCS(=O)(=O)CCC(F)(C(F)(F)F)C(F)(F)F` [Example 111, 8-(4-Fluorophenyl)-9-{6-[methyl(4-{[3,4,4,4-tetrafluoro-3-(trifluoromethyl)butyl]sulphonyl}butyl)amino]hexyl}-6,7-dihydro-5H-benzo[7]annulen-3-ol] here?
The IC50 was 33 nM.

For `N#CCN(CCCCCCC1=C(c2ccc(F)cc2)CCCc2cc(O)ccc21)CCCCS(=O)(=O)CCCC(F)(F)F` [Example 90, ({6-[8-(4-Fluorophenyl)-3-hydroxy-6,7-dihydro-5H-benzo[7]annulen-9-yl]hexyl}{4-[(4,4,4-trifluorobutyl)sulphonyl]butyl}amino)acetonitrile], which IC50 is on record?
Its IC50 is 14 nM.

For `CN(CCCCCCC1=C(c2ccc(F)c(F)c2)CCCc2cc(O)ccc21)CCCC[S+]([O-])CCCC(F)(F)C(F)(F)F` (stereo not drawn) [Example 20, 8-(3,4-Difluorophenyl)-9-[6-(methyl{4-[(4,4,5,5,5-pentafluoropentyl)sulphinyl]butyl}amino)hexyl]-6,7-dihydro-5H-benzo[7]annulen-3-ol], which IC50 is on record?
Its IC50 is 9 nM.

`CN(CCCCCCC1=C(c2ccc(F)cc2)CCCc2c1ccc(O)c2F)CCCCS(=O)(=O)CCCC(F)(F)C(F)(F)F` [Example 39, 4-Fluoro-8-(4-fluorophenyl)-9-[6-(methyl{4-[(4,4,5,5,5-pentafluoropentyl)sulphonyl]butyl}amino)hexyl]-6,7-dihydro-5H-benzo[7]annulen-3-ol] was tested. Which IC50 did it give?
Its IC50 is 8 nM.

How did the IC50 turn out when `O=S(=O)(CCCCNCCCCCCC1=C(c2cc(F)cc(F)c2)CCCc2cc(O)ccc21)CCCC(F)(F)F` [Example 67, 8-(3,5-Difluorophenyl)-9-[6-({4-[(4,4,4-trifluorobutyl)sulphonyl]butyl}amino)hexyl]-6,7-dihydro-5H-benzo[7]annulen-3-ol] was run?
Its IC50 is 20 nM.

For `O=C(O)CCCN(CCCCCCC1=C(c2ccc(F)cc2)CCCc2cc(O)ccc21)CCCCS(=O)(=O)CCCC(F)(F)F` [Example 96, 4-({6-[8-(4-Fluorophenyl)-3-hydroxy-6,7-dihydro-5H-benzo[7]annulen-9-yl]hexyl}{4-[(4,4,4-trifluorobutyl)sulphonyl]butyl}amino)butanoic acid], which IC50 is on record?
The IC50 was 21 nM.

For `CC(C)(O)CN(CCCCCCC1=C(c2ccc(F)c(F)c2)CCCc2cc(O)ccc21)CCCS(=O)(=O)CCCC(F)(F)C(F)(F)F` [Example 29, 8-(3,4-Difluorophenyl)-9-{6-[(2-hydroxy-2-methylpropyl){3-[(4,4,5,5,5-pentafluoropentyl)sulphonyl]propyl}amino]hexyl}-6,7-dihydro-5H-benzo[7]annulen-3-ol], which IC50 is on record?
The IC50 was 10 nM.

How did the IC50 turn out when `CN(CCCCCCC1=C(c2ccc(F)cc2)CCCc2c1ccc(O)c2F)CCCS(=O)(=O)CCCCC(F)(F)F` [Example 87, 4-Fluoro-8-(4-fluorophenyl)-9-[6-(methyl{3-[(5,5,5-trifluoropentyl)sulphonyl]propyl}amino)hexyl]-6,7-dihydro-5H-benzo[7]annulen-3-ol] was run?
The IC50 was 10 nM.

With `O=S(=O)(CCCN(CCCO)CCCCCCC1=C(c2ccc(F)cc2)CCCc2c1ccc(O)c2F)CCC(F)(F)F` [Example 62, 4-Fluoro-8-(4-fluorophenyl)-9-{6-[(3-hydroxypropyl){3-[(3,3,3-trifluoropropyl)sulphonyl]propyl}amino]hexyl}-6,7-dihydro-5H-benzo[7]annulen-3-ol] as the molecule, how does the IC50 read?
The IC50 was 84 nM.

`CN(CCCCCCC1=C(c2ccc(F)cc2)CCCc2c1ccc(O)c2F)CCCS(=O)(=O)CCC(F)(F)C(F)(F)F` [Example 34, 4-Fluoro-8-(4-fluorophenyl)-9-[6-(methyl{3-[(3,3,4,4,4-pentafluorobutyl)sulphonyl]propyl}amino)hexyl]-6,7-dihydro-5H-benzo[7]annulen-3-ol] was tested. Which IC50 did it give?
Its IC50 is 27 nM.

With `CN(CCCCCCC1=C(c2ccc(F)cc2)CCCc2cc(O)ccc21)CCCSCCCC(F)(F)C(F)(F)F` [Example 78, 8-(4-Fluorophenyl)-9-[6-(methyl{3-[(4,4,5,5,5-pentafluoropentyl)sulphanyl]propyl}amino)hexyl]-6,7-dihydro-5H-benzo[7]annulen-3-ol] as the molecule, how does the IC50 read?
Its IC50 is 31 nM.

`CN(CCCCCCC1=C(c2ccc(F)cc2)CCCc2cc(O)c(F)cc21)CCCCS(=O)(=O)CCCC(F)(F)C(F)(F)F` [Example 105, 2-Fluoro-8-(4-fluorophenyl)-9-[6-(methyl{4-[(4,4,5,5,5-pentafluoropentyl)sulphonyl]butyl}amino)hexyl]-6,7-dihydro-5H-benzo[7]annulen-3-ol] was tested. Which IC50 did it give?
Its IC50 is 12 nM.
